From PubChem BioAssay AID248 (DTP/NCI, 2004)
Values joined by “and” are separate entries in the source; they are usually repeats but may differ in a detail not shown here. Identical values can stand only once. Inconclusive results and toxic doses are left out. No stated cut-off is given here; in the data, active means T/C of 150% or more; inactive means T/C below 125%.

Tested on: L1210 leukemia ip in BDF1 mice, survival T/C
Test: NCI In Vivo Anticancer Drug Screen. Data for tumor model L1210 Leukemia (intraperitoneal) in B6D2F1 (BDF1) mice
Conditions: endpoint: mean survival time, higher = longer survival
In short: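 Each compound was tested against a transplantable tumor grown in mice. The endpoint was survival, with treated animals benchmarked against vehicle controls as a simple ratio.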

[1] = dose: 100.0 mg/kg/injection, schedule: Q01DX001 (ip), vehicle: carboxymethylcellulose (CMC)
[2] = dose: 200.0 mg/kg/injection, schedule: Q01DX001 (ip), vehicle: carboxymethylcellulose (CMC)
[3] = dose: 400.0 mg/kg/injection, schedule: Q01DX001 (ip), vehicle: carboxymethylcellulose (CMC)
[4] = dose: 100.0 mg/kg/injection, schedule: Q01DX009 (ip), vehicle: Klucel (hydroxypropylcellulose) (HPC)
[5] = dose: 100.0 mg/kg/injection, schedule: Q04DX003 (ip), vehicle: Klucel (hydroxypropylcellulose) (HPC)
[6] = dose: 200.0 mg/kg/injection, schedule: Q01DX009 (ip), vehicle: Klucel (hydroxypropylcellulose) (HPC)
[7] = dose: 200.0 mg/kg/injection, schedule: Q04DX003 (ip), vehicle: Klucel (hydroxypropylcellulose) (HPC)
[8] = dose: 400.0 mg/kg/injection, schedule: Q01DX009 (ip), vehicle: Klucel (hydroxypropylcellulose) (HPC)
[9] = dose: 400.0 mg/kg/injection, schedule: Q04DX003 (ip), vehicle: Klucel (hydroxypropylcellulose) (HPC)
[10] = dose: 100.0 mg/kg/injection, schedule: Q01DX009 (ip), vehicle: saline with Tween-80
[11] = dose: 100.0 mg/kg/injection, schedule: Q04DX003 (ip), vehicle: saline with Tween-80
[12] = dose: 200.0 mg/kg/injection, schedule: Q01DX009 (ip), vehicle: saline with Tween-80
[13] = dose: 200.0 mg/kg/injection, schedule: Q04DX003 (ip), vehicle: saline with Tween-80
[14] = dose: 400.0 mg/kg/injection, schedule: Q01DX009 (ip), vehicle: saline with Tween-80
[15] = dose: 100.0 mg/kg/injection, schedule: Q04DX002 (ip), vehicle: saline with Tween-80

Measured: T/C

O=C(SCCN1CCCC1)C(O)(c1ccccc1)C1CCCC1 (configuration not stated)
inactive: dose: 75.0 mg/kg/injection, schedule: Q01DX001 (ip), vehicle: carboxymethylcellulose (CMC) 92 % of control | dose: 150.0 mg/kg/injection, schedule: Q01DX001 (ip), vehicle: carboxymethylcellulose (CMC) 96 % of control | dose: 300.0 mg/kg/injection, schedule: Q01DX001 (ip), vehicle: carboxymethylcellulose (CMC) 96 % of control

CC1Cc2c(n[nH]c2CC2CC(=O)NC(=O)C2)C(C)C1 (configuration not stated)
inactive: [1] 100 % of control | [2] 97 % of control | [3] 101 % of control

C#CCOC(=O)C1C2CCC(O2)C1C(=O)O (configuration not stated)
inactive: dose: 1.25 mg/kg/injection, schedule: Q01DX009 (ip), vehicle: saline 100 % of control | dose: 2.5 mg/kg/injection, schedule: Q01DX009 (ip), vehicle: saline 109 % of control

c1ccc2cc(N=Nc3ccc4ccccc4c3)ccc2c1
inactive: [4] 98 % of control | [5] 95 % of control | [6] 97 % of control | [7] 92 % of control | [8] 102 % of control | [9] 94 % of control

CC(C)(CBr)C(=O)N1CCN(C(=O)C(C)(C)CBr)CC1
inactive: dose: 6.2 mg/kg/injection, schedule: Q01DX Z (ip), vehicle: carboxymethylcellulose (CMC) 109 % of control | dose: 9.2 mg/kg/injection, schedule: Q01DX Z (ip), vehicle: methylcellulose (MC) 94 % of control | dose: 9.4 mg/kg/injection, schedule: Q01DX Z (ip), vehicle: carboxymethylcellulose (CMC) 118 % of control | dose: 14.0 mg/kg/injection, schedule: Q01DX Z (ip), vehicle: carboxymethylcellulose (CMC) 116 % of control | dose: 14.0 mg/kg/injection, schedule: Q01DX Z (ip), vehicle: methylcellulose (MC) 103 % of control | dose: 21.0 mg/kg/injection, schedule: Q01DX Z (ip), vehicle: carboxymethylcellulose (CMC) 121 % of control | dose: 21.0 mg/kg/injection, schedule: Q01DX Z (ip), vehicle: methylcellulose (MC) 103 % of control | dose: 42.0 mg/kg/injection, schedule: Q01DX Z (ip), vehicle: methylcellulose (MC) 111 % of control | dose: 50.0 mg/kg/injection, schedule: Q01DX Z (ip), vehicle: methylcellulose (MC) 121 % of control | dose: 68.0 mg/kg/injection, schedule: Q01DX Z (ip), vehicle: methylcellulose (MC) 98 % of control

O=C(O)c1c[nH]n2c(=S)ncnc12
inactive: dose: 50.0 mg/kg/injection, schedule: Q01DX009 (ip), vehicle: saline with Tween-80 97 % of control | [10] 96 % of control and 103 % of control | [11] 96 % of control | [12] 102 % of control and 103 % of control | [13] 94 % of control | [14] 101 % of control

COc1ccc(/C=N/NC(=S)Nc2cccc3cccnc23)cc1OC
inactive: dose: 100.0 mg/kg/injection, schedule: Q01DX001 (ip), vehicle: saline 100 % of control | dose: 200.0 mg/kg/injection, schedule: Q01DX001 (ip), vehicle: saline 94 % of control | dose: 400.0 mg/kg/injection, schedule: Q01DX001 (ip), vehicle: saline 86 % of control

FC(F)(F)c1cc(Br)c2ccc3ncccc3c2n1
inactive: [15] 111 % of control | dose: 200.0 mg/kg/injection, schedule: Q04DX002 (ip), vehicle: saline with Tween-80 107 % of control | dose: 400.0 mg/kg/injection, schedule: Q04DX002 (ip), vehicle: saline with Tween-80 96 % of control

CN1C(c2ccco2)NC(=O)C12CCN(Cc1ccccc1)CC2 (configuration not stated)
inactive: [1] 101 % of control | [2] 93 % of control

O=C(OCCCl)c1ccc([N+](=O)[O-])cc1
inactive: [11] 95 % of control | [13] 95 % of control | dose: 400.0 mg/kg/injection, schedule: Q04DX003 (ip), vehicle: saline with Tween-80 102 % of control

C/C=C\C=N\NC(N)=S
inactive: dose: 12.5 mg/kg/injection, schedule: Q04DX003 (ip), vehicle: saline with Tween-80 95 % of control | dose: 25.0 mg/kg/injection, schedule: Q04DX003 (ip), vehicle: saline with Tween-80 103 % of control | dose: 50.0 mg/kg/injection, schedule: Q04DX003 (ip), vehicle: saline with Tween-80 95 % of control

O=C(O)CC1(C(=O)O)CC2C=CC1C2 (configuration not stated)
inactive: [1] 97 % of control and 105 % of control | dose: 100.0 mg/kg/injection, schedule: Q04DX002 (ip), vehicle: carboxymethylcellulose (CMC) 97 % of control and 98 % of control | dose: 100.0 mg/kg/injection, schedule: Q04DX003 (ip), vehicle: carboxymethylcellulose (CMC) 95 % of control and 97 % of control | [2] 97 % of control and 91 % of control | dose: 200.0 mg/kg/injection, schedule: Q04DX002 (ip), vehicle: carboxymethylcellulose (CMC) 97 % of control and 90 % of control | dose: 200.0 mg/kg/injection, schedule: Q04DX003 (ip), vehicle: carboxymethylcellulose (CMC) 97 % of control and 87 % of control | [3] 99 % of control and 103 % of control | dose: 400.0 mg/kg/injection, schedule: Q04DX002 (ip), vehicle: carboxymethylcellulose (CMC) 87 % of control and 90 % of control | dose: 400.0 mg/kg/injection, schedule: Q04DX003 (ip), vehicle: carboxymethylcellulose (CMC) 94 % of control and 90 % of control

CC1=NNC(C)(C)C1
inactive: dose: 100.0 mg/kg/injection, schedule: Q04DX003 (ip), vehicle: saline 91 % of control | dose: 200.0 mg/kg/injection, schedule: Q04DX003 (ip), vehicle: saline 93 % of control | dose: 400.0 mg/kg/injection, schedule: Q04DX003 (ip), vehicle: saline 98 % of control

NC1CC(C(=O)O)CCC1S (configuration not stated)
inactive: dose: 12.5 mg/kg/injection, schedule: Q04DX002 (ip), vehicle: saline 106 % of control | dose: 50.0 mg/kg/injection, schedule: Q04DX002 (ip), vehicle: other 94 % of control | dose: 50.0 mg/kg/injection, schedule: Q04DX002 (ip), vehicle: saline 87 % of control | dose: 100.0 mg/kg/injection, schedule: Q04DX002 (ip), vehicle: other 91 % of control

OC1(c2ccccc2)c2ccccc2C(O)(c2ccccc2)c2cc(-c3ccccc3)c(-c3ccccc3)cc21 (configuration not stated)
inactive: dose: 100.0 mg/kg/injection, schedule: Q04DX002 (ip), vehicle: Klucel (hydroxypropylcellulose) (HPC) 95 % of control | dose: 200.0 mg/kg/injection, schedule: Q04DX002 (ip), vehicle: Klucel (hydroxypropylcellulose) (HPC) 103 % of control | dose: 400.0 mg/kg/injection, schedule: Q04DX002 (ip), vehicle: Klucel (hydroxypropylcellulose) (HPC) 106 % of control

Cc1c(NC(=O)Nc2ccccc2C(F)(F)F)c(=O)n(-c2ccccc2)n1C
inactive: [10] 104 % of control | [12] 98 % of control | [14] 91 % of control

O=C(OC1CCCCCCC1)C(F)(F)F
inactive: [4] 98 % of control | [5] 104 % of control | [6] 101 % of control | [7] 105 % of control | [8] 92 % of control | [9] 105 % of control

COc1cc(C2=N/C(=C\c3cccc([N+](=O)[O-])c3)C(=O)O2)cc(OC)c1OC
inactive: dose: 25.0 mg/kg/injection, schedule: Q04DX002 (ip), vehicle: saline with Tween-80 87 % of control | dose: 50.0 mg/kg/injection, schedule: Q04DX002 (ip), vehicle: saline with Tween-80 90 % of control | [15] 93 % of control and 89 % of control

CCCCCCCCCCCC[As](=O)(O)O
inactive: dose: 50.0 mg/kg/injection, schedule: Q01DX001 (ip), vehicle: carboxymethylcellulose (CMC) 96 % of control | [1] 93 % of control
